# Test results: patent US20050070594A1, “Use of angiotensin II receptor antagonists” (Boehringer Ingelheim International GmbH, priority 2003, published 2005)
# Columns and labels:
# [1] = biological target: T1, human PPARgamma-ligand binding domain (LBD) (Homo sapiens, UniProt P37231); test: AlphaScreen: recruiting of biotinylated LXXLL peptide of cofactor CBP to GST-PPARgamma-LBD; assay type: biochemical
# T1 construct: codes for the amino acids 205-505 of the human PPARgamma2 transcription factor; made in house; host or cells: E. coli BL21(DE3), vector pGEX-4T-1
# T1 sequence (P37231 205-505): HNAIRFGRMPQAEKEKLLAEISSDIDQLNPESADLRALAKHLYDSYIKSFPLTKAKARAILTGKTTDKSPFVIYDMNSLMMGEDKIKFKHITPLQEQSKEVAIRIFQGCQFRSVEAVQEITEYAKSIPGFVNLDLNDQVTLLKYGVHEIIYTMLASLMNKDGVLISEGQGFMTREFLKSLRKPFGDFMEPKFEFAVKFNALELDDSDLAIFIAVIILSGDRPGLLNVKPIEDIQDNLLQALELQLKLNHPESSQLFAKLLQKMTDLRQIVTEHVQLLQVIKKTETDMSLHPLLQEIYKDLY
# Description: Protein containing the human PPARgamma-ligand binding domain (LBD) is prepared as a GST fusion protein in E.coli and purified by affinity chromatography. […] The fusion protein is expressed in the E.coli strain BL21(DE3) recommended for pGEX vectors after induction with 0.2 mM IPTG for 4 hours at 25° C. The bacteria are pelleted after the induction and frozen in batches in PBS, pH 7.4. After opening up in a French Press, the dissolved GST-PPARgamma-LBD-fusion protein is purified using a GSTrap column (Pharmacia). Elution is carried out by the addition of 20 mM reduced glutathione.
# The GST-PPARgamma-LBD-protein fractions are desalinated using a HiTrap desalting column (Pharmacia) and the protein concentration is determined using a standard assay.
# The assay buffer consists of 25 mM Hepes pH7.4, 100 mM NaCl,1 mM DTT, 0.1% Tween-20, 0.1% BSA. […] The final DMSO concentration in the assay is 1% (v/v). A 1% DMSO solution is used as the background control (NSB). The measurement is done using a Packard fusion measuring device.
# 3T3-L1 adipocytes = test: Lipid accumulation and differentiation of 3T3-L1 adipocytes (Oil Red-O staining); assay type: cell-based, mouse
# From the text: 3T3-L1 mouse preadipocytes are cultivated in DMEM (Dulbecco's modified eagle medium) with 10% foetal calf serum (FBS). PC12W cells are cultivated in DMEM with 5% FBS and 10% equine serum. In both cases the media contain 1% penicillin/streptomycin.
# The differentiation of adipocytes is induced 2-3 days after cell confluence by adding a differentiating solution. This contains • 1 μmol/L of dexamethasone, • 0.5 mmol/L of 3-isobutyl-1-methylxanthine, • 1.67 μmol/L of insulin, and • 10% FBS.
# Then the cells are stimulated for another 48 hours before finally being analysed (day 4).
# Cells are washed with PBS and fixed with a 3.7% formaldehyde solution for 2 minutes. After fixing, the cells are stained for 1 hour at ambient temperature with a 0.5% stock solution of Oil Red-O in isopropanol diluted 3:2 with water. After washing, the cells are examined under a light microscope.
# [2] = biological target: T2, human PPARgamma-ligand binding domain (LBD) (Homo sapiens, UniProt P37231); test: SPA assay: displacement of 3H-labelled rosiglitazone from GST-PPARgamma-LBD; conditions: NSB 217, Bmax 911
# T2 sequence (P37231 205-505): T1 sequence (P37231 205-505)
# T2 sequence (P19793 220-461 partner limits assumed): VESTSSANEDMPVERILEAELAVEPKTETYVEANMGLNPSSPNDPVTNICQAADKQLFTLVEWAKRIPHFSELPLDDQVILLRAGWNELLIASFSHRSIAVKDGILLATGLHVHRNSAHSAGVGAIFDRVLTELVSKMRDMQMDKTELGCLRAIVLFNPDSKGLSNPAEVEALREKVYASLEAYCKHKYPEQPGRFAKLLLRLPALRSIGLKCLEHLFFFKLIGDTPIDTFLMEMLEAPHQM
# Description: Protein containing the human PPARgamma-ligand binding domain (LBD) is prepared as a GST fusion protein in E.coli and purified by affinity chromatography. To do this, a DNA section which codes for the amino acids 205-505 of the human PPARgamma2 transcription factor (cf. Genbank entry U79012) is subcloned via the additionally introduced restriction cutting sites BamH I and Xho I into the expression vector pGEX-4T-1 (Amersham) and the sequence of the section is monitored. […] The bacteria are pelleted after the induction and frozen in batches in PBS, pH 7.4. After opening up in a French Press, the dissolved GST-PPARgamma-LBD-fusion protein is purified using a GSTrap column (Pharmacia). Elution is carried out by the addition of 20 mM reduced glutathione. The GST-PPARgamma-LBD-protein fractions are desalinated using a HiTrap desalting column (Pharmacia) and the protein concentration is determined using a standard assay. Protein containing the human RXRalpha ligand binding domain (LBD) is prepared as a His tag fusion protein in E.coli and purified by affinity chromatography. To do this a DNA section which codes for the amino acids 220-461 of the human RXRalpha transcription factor (cf. Genbank entry NM_002957, nt 729-1457) is subcloned via the additionally introduced restriction cutting sites BamH I and Not I into the expression vector pET28c (Novagen) and the sequence of the section is monitored. […] The bacteria are pelleted after the expression and frozen in batches in PBS, pH 7.4. After opening up in a French Press, the dissolved His-RXRalpha-LBD-fusion protein is purified using a HiTrap chelating column (Pharmacia). Elution is carried out using a 500 mM imidazole step. The His-RXRalpha-LBD protein fractions are desalinated using a HiTrap desalting column (Pharmacia) and the protein concentration is determined using a standard assay. A description of the SPA assay format can be found in Mukheriee R et al., J Steroid Biochem Mol Biol (2002) 81:217-225.
compound,measurement,setting,value
CCCc1nc2c(C)cc(-c3nc4ccccc4n3C)cc2n1Cc1ccc(-c2ccccc2C(=O)O)cc1 [telmisartan],AlphaScreen signal (MW),[1]; 1.00E−05 M test substance,847
same,AlphaScreen signal (MW),[1]; 1.00E−06 M test substance,677
same,AlphaScreen signal (MW),[1]; 1.00E−07 M test substance,606
same,AlphaScreen signal (MW),[1]; 3.00E−06 M test substance,720
same,AlphaScreen signal (MW),[1]; 3.00E−07 M test substance,644
same,AlphaScreen signal (MW),[1]; 3.00E−08 M test substance,642
same,AlphaScreen signal (MW),[1]; 5.00E−05 M test substance,1111
same,direct activation of the PPARgamma-LBD / recruiting of the LXXLL peptide,[1]; concentrations of up to 50 μM,does not result in any direct activation
same,differentiation of 3T3-L1 adipocytes,3T3-L1 adipocytes,promoted
same,accumulation of lipids (Oil Red-O staining),"3T3-L1 adipocytes; 10 μmol/L, day 4",increased accumulation of lipids
same,"SPA signal, bound 3H-rosiglitazone (MW)",[2]; 1.00E−04 M test substance,545
same,"SPA signal, bound 3H-rosiglitazone (MW)",[2]; 1.00E−05 M test substance,703
same,"SPA signal, bound 3H-rosiglitazone (MW)",[2]; 1.00E−06 M test substance,818
same,"SPA signal, bound 3H-rosiglitazone (MW)",[2]; 1.00E−07 M test substance,837
same,"SPA signal, bound 3H-rosiglitazone (MW)",[2]; 3.00E−05 M test substance,691
same,"SPA signal, bound 3H-rosiglitazone (MW)",[2]; 3.00E−06 M test substance,818
same,"SPA signal, bound 3H-rosiglitazone (MW)",[2]; 3.00E−07 M test substance,802
